Data: PMC3072440 (Chemical research in toxicology, 2010)
Where two headings read alike, the source gives them in different places. One block for each molecule: values may come before it.

Columns and labels:
human P450 1A1 = target: T1, human P450 1A1 (Homo sapiens, UniProt P04798); assay: Inhibition of P450 1A1-dependent EROD activity; type: biochemical
T1 sequence (P04798 1-512): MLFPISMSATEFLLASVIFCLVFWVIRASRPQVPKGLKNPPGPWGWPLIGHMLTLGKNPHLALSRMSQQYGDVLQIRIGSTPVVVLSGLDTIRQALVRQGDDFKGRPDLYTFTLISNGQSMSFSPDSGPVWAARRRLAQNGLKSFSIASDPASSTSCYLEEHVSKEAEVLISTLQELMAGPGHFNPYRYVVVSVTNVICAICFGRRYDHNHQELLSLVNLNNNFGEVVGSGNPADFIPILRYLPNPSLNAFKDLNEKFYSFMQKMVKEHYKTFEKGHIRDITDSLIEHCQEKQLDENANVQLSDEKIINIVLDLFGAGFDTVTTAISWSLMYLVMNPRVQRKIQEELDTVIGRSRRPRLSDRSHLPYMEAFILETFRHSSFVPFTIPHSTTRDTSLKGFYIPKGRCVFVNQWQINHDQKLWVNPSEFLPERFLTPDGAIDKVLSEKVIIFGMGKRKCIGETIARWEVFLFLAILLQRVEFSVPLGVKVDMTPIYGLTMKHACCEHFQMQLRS

human P450 3A4 [1] = target: T2, human P450 3A4 (Homo sapiens, UniProt P08684); assay: Inhibition of P450 3A4-dependent midazolam 4-hydroxylation
T2 sequence (P08684 whole entry): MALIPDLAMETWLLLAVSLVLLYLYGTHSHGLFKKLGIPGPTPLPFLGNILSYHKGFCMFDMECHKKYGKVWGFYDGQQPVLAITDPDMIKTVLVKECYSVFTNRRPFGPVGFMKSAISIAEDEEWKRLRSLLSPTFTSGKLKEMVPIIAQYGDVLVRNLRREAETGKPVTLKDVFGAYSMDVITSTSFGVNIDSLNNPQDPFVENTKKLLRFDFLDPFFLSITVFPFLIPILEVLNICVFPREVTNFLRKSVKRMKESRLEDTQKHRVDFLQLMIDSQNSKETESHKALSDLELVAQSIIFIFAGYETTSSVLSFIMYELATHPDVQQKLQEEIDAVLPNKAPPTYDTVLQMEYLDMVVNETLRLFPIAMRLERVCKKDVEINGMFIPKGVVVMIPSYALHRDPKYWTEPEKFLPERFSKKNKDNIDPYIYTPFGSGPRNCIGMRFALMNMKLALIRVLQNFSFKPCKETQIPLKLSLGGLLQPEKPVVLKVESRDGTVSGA

human P450 2C9 [2] = target: T3, human P450 2C9 (Homo sapiens, UniProt P11712); assay: Inhibition of P450 2C9-dependent flurbiprofen 4’-hydroxylation
T3 sequence (P11712 whole entry): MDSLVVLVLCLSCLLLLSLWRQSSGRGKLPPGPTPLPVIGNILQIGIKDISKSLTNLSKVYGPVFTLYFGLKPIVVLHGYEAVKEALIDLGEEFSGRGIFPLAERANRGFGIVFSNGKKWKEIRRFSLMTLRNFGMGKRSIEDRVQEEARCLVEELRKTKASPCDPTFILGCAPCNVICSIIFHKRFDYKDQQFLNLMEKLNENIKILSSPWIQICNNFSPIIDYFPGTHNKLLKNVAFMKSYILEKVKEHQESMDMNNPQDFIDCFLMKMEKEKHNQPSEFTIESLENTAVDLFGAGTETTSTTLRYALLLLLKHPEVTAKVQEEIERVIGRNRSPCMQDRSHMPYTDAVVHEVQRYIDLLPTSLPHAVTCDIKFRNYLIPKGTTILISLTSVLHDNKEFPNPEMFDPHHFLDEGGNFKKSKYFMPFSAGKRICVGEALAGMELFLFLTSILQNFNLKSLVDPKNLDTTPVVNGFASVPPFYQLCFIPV

human P450 1B1 [3] = target: T4, human P450 1B1 (Homo sapiens, UniProt Q16678); assay: Inhibition of P450 1B1-dependent EROD activity; type: biochemical
T4 sequence (Q16678 1-543): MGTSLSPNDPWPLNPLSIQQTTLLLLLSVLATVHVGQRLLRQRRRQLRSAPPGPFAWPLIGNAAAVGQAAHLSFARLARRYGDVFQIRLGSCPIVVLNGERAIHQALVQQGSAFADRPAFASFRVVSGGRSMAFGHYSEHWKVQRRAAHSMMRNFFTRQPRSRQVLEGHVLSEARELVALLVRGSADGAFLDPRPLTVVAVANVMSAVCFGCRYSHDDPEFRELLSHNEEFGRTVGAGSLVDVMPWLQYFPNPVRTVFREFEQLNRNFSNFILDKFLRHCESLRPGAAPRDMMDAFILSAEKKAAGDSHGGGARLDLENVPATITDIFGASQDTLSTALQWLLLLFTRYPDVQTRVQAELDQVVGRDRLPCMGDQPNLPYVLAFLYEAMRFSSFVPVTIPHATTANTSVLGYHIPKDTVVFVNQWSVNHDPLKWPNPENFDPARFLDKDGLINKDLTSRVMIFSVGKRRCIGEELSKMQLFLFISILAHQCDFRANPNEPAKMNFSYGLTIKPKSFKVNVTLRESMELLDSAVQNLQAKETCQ

human P450 3A4 [4] = target: T2, human P450 3A4; assay: Spectral binding titration with purified P450 3A4; settings: for spectral change / Type I binding spectra with P450 3A4, in words: decreases in α and β bands monitored, up to 100 µM
human P450 1A2 [5] = target: T5, human P450 1A2 (Homo sapiens, UniProt P05177)
T5 sequence (P05177 1-516): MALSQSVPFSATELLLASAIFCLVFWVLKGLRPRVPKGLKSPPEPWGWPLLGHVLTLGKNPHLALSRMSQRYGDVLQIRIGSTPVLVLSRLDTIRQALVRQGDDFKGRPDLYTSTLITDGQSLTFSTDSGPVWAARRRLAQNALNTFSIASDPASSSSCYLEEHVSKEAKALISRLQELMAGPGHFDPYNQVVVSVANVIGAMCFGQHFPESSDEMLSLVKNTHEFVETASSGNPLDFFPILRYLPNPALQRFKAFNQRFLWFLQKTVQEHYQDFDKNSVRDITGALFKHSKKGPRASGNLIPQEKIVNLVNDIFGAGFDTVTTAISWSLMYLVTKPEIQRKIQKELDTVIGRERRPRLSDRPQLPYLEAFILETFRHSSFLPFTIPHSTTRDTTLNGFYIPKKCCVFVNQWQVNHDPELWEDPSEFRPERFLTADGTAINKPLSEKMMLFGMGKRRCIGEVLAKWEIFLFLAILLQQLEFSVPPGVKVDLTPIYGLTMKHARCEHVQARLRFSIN

human P450 2C9 [6] = target: T3, human P450 2C9
human P450 2C9 [7] = target: T3, human P450 2C9; assay: Spectral binding titration with purified P450 2C9; settings: concentrations up to 100 µM; results not shown
human P450 3A4 [8] = target: T2, human P450 3A4; assay: Effect on P450 3A4-catalyzed midazolam 1’-hydroxylation
human P450 1A2 [9] = target: T5, human P450 1A2; assay: Inhibition of P450 1A2-dependent EROD activity
human P450 1B1 [10] = target: T4, human P450 1B1; assay: Spectral binding titration with purified P450 1B1

Compound: COc1ccccc1-c1cc(=O)c2c(O)cc(O)cc2o1 [2’M57DHF, 2’-methoxy-5,7-dihydroxyflavone]
IC50 (human P450 1A1): 1400 nM
IC50 (human P450 3A4 [1]): 2000 nM
inhibition of P450 2C9 flurbiprofen 4’-hydroxylation, in words (human P450 2C9 [2]): strong inhibitors

Compound: C[C@@H]1O[C@@H](O[C@H]2[C@H](Oc3cc(O)c4c(c3)O[C@H](c3ccc(O)cc3)CC4=O)O[C@H](CO)[C@@H](O)[C@@H]2O)[C@H](O)[C@H](O)[C@H]1O [4’57THFvaG, 4’,5,7-trihydroxyflavanone glycoside]
inhibition of P450 1B1 EROD, in words (human P450 1B1 [3]): weak inhibitor

Compound: COc1ccc(-c2cc(=O)c3ccccc3o2)cc1 [4’MF, 4’-methoxyflavone]
spectral change / Type I binding spectra with P450 3A4, in words (human P450 3A4 [4]): induced spectral changes
inhibition of P450 3A4 midazolam 4-hydroxylation, in words (human P450 3A4 [1]): not very effective inhibitors

Compound: COc1ccc(-c2cc(=O)c3c(O)cc(O)cc3o2)cc1OC [3’4’DM57DHF, 3’4’-dimethoxy-5,7-dihydroxyflavone]
IC50 (human P450 1B1 [3]; read-out: inhibition of substrate oxidation by P450s (IC50), P450 1B1, 7-ethoxyresorufin O-deethylation, 2.5 µM substrate, bacterial membranes, means ± SD): 19 ± 3 nM
IC50 (human P450 1A1): 72 ± 11 nM
IC50 (human P450 1A2 [5]): 11 ± 3 nM
IC50 (human P450 2C9 [6]): 880 ± 210 nM
inhibition of P450 2C9 flurbiprofen 4’-hydroxylation, in words (human P450 2C9 [6]): strong inhibitors
IC50 of P450 3A4 fold higher than that for P450 1B1 (human P450 3A4 [1]; ratio IC50 3A4 / IC50 1B1): 2000 fold
IC50 of P450 3A4 fold higher than that of P450 2C9 (human P450 3A4 [1]; ratio IC50 3A4 / IC50 2C9): 43 fold

Compound: O=c1c(O)c(-c2ccccc2)oc2cc(O)cc(O)c12 [357THF, 3,5,7-trihydroxyflavone]
spectral change / Type I binding spectra with P450 3A4, in words (human P450 3A4 [4]): induced spectral changes
spectral changes with P450 2C9, in words (human P450 2C9 [7]): did not induce spectral changes
effect on formation of 1’-hydroxymidazolam by P450 3A4, in words (human P450 3A4 [8]): slightly activated
IC50 (human P450 3A4 [1]): 2300 ± 300 nM
inhibition of P450 3A4 midazolam 4-hydroxylation, in words (human P450 3A4 [1]): significantly inhibited
IC50 (human P450 2C9 [2]): 200 ± 30 nM
inhibition of P450 2C9 flurbiprofen 4’-hydroxylation, in words (human P450 2C9 [2]): strong inhibitors

Compound: COc1cccc(-c2cc(=O)c3ccccc3o2)c1 [3’MF, 3’-methoxyflavone]
spectral change / Type I binding spectra with P450 3A4, in words (human P450 3A4 [4]): induced spectral changes
inhibition of P450 3A4 midazolam 4-hydroxylation, in words (human P450 3A4 [1]): not very effective inhibitors

Compound: O=c1cc(-c2ccccc2)oc2cc(O)ccc12 [7HF, 7-hydroxyflavone]
spectral changes with P450 2C9, in words (human P450 2C9 [7]): did not induce spectral changes
IC50 (human P450 3A4 [1]): > 100000 nM
inhibition of P450 2C9 flurbiprofen 4’-hydroxylation, in words (human P450 2C9 [2]): strong inhibitors

Compound: COc1ccc(-c2coc3cc(O)cc(O)c3c2=O)cc1 [4’M57DHIsoF, 4’-methoxy-5,7-dihydroxyisoflavone]
IC50 (human P450 1B1 [3]): 700 nM
pattern of inhibition of P450 1B1 (kinetic analysis) (human P450 1B1 [3]; 357THF 0.02 µM, 4’57THFva 8.0 µM, 4’M57DHisoF 8.0 µM, results not shown): mixed-type
spectral changes with P450 2C9, in words (human P450 2C9 [7]): did not induce spectral changes

Compound: O=c1cc(-c2ccccc2)oc2cccc(O)c12 [5HF, 5-hydroxyflavone]
IC50 (human P450 3A4 [1]): > 100000 nM

Compound: O=c1c(O)c(-c2ccc(O)cc2)oc2cc(O)cc(O)c12 [34’57TetraHF, 3,4’,5,7-tetrahydroxyflavone]
spectral changes with P450 2C9, in words (human P450 2C9 [7]): did not induce spectral changes

Compound: COc1ccc(-c2cc(=O)c3c(O)cc(O)cc3o2)cc1 [4’M57DHF, 4’-methoxy-5,7-dihydroxyflavone]
spectral change / Type I binding spectra with P450 3A4, in words (human P450 3A4 [4]): induced spectral changes
spectral changes with P450 2C9, in words (human P450 2C9 [7]): did not induce spectral changes
effect on formation of 1’-hydroxymidazolam by P450 3A4, in words (human P450 3A4 [8]): slightly activated
inhibition of P450 3A4 midazolam 4-hydroxylation, in words (human P450 3A4 [1]): significantly inhibited
IC50 (human P450 2C9 [2]): 650 ± 130 nM
inhibition of P450 2C9 flurbiprofen 4’-hydroxylation, in words (human P450 2C9 [2]): strong inhibitors

Compound: COc1ccccc1-c1cc(=O)c2ccccc2o1 [2’MF, 2’-Methoxyflavone]
spectral change / Type I binding spectra with P450 3A4, in words (human P450 3A4 [4]): induced spectral changes
inhibition of P450 3A4 midazolam 4-hydroxylation, in words (human P450 3A4 [1]): not very effective inhibitors

Compound: COc1ccc(-c2cc(=O)c3ccccc3o2)cc1OC [3’4’DMF, 3’,4’-dimethoxyflavone]
inhibition of P450 3A4 midazolam 4-hydroxylation, in words (human P450 3A4 [1]): not very effective inhibitors

Compound: COc1ccc(-c2cc(=O)c3ccc(O)c(O)c3o2)cc1OC [3’4’DM78DHF, 3’,4’-dimethoxy-7,8-dihydroxyflavone]
IC50 (human P450 1B1 [3]): > 100000 nM
IC50 (human P450 1A1): 41000 ± 10000 nM
IC50 (human P450 1A2 [9]): > 100000 nM
inhibition of P450 1A2 at 100 µM, in words (human P450 1A2 [9]; 100 µM concentration): did not inhibit
IC50 (human P450 3A4 [1]): > 100000 nM
inhibition of P450 3A4 at 100 µM, in words (human P450 3A4 [1]; 100 µM concentration): not inhibitory
IC50 (human P450 2C9 [2]): 25000 ± 4200 nM

Compound: COc1ccccc1-c1cc(=O)c2ccc(O)c(O)c2o1 [2’M78DHF, 2’-methoxy-7,8-dihydroxyflavone]
binding spectra with P450 1B1, in words (human P450 1B1 [10]): no binding spectra
binding spectra with P450 1B1, in words (human P450 1B1 [10]; listed as 2M78DHF): did not show spectra

More lines, main results first:

inhibition of P450 2C9 flurbiprofen 4’-hydroxylation, in words (human P450 2C9 [6]): strong inhibitors
IC50 (human P450 2C9 [2]): 800 ± 140 nM
Compound: O=c1cc(-c2ccccc2)oc2cc(O)cc(O)c12 [57DHF, 5,7-dihydroxyflavone]

IC50 (human P450 1A2 [5]): 240 nM
Compound: C#CCOc1ccccc1-c1cc(=O)c2ccc3ccccc3c2o1 [ANF2’PE, α-naphthoflavone 2’-propargyl ether]

inhibition of P450 1A2 EROD, in words (human P450 1A2 [5]): only weakly
Compound: C#CCOc1ccc(-c2cc(=O)c3c(ccc4ccccc43)o2)cc1 [BNF4’PE, β–naphthoflavone 4’-propargyl ether]

inhibition of P450 1A2 EROD, in words (human P450 1A2 [5]): only weakly
Compound: C#CCOc1ccccc1-c1cc(=O)c2c(ccc3ccccc32)o1 [BNF2’PE, β–naphthoflavone 2’-propargyl ether]

IC50 (human P450 1B1 [3]): 17 nM
inhibition of P450 1A1 EROD, in words (human P450 1A1): strongly inhibited
inhibition of P450 1A2 EROD, in words (human P450 1A2 [9]): only weakly
spectral changes with P450 2C9, in words (human P450 2C9 [7]): did not induce spectral changes
inhibition of P450 3A4 midazolam 4-hydroxylation, in words (human P450 3A4 [1]): not active inhibitors
Compound: O=c1cc(-c2ccccc2)oc2ccc3ccccc3c12 [BNF, β–naphthoflavone]

inhibition of P450 1A1 EROD, in words (human P450 1A1): strongly inhibited
spectral changes with P450 2C9, in words (human P450 2C9 [7]): did not induce spectral changes
IC50 (human P450 3A4 [1]): 18000 nM
Compound: O=c1cc(-c2ccccc2)oc2c1ccc1ccccc12 [ANF, α-naphthoflavone]

spectral changes with P450 2C9, in words (human P450 2C9 [7]): Type I spectra
Compound: CC(C(=O)O)c1ccc(-c2ccccc2)c(F)c1 (stereo not drawn) [flurbiprofen]

IC50 (human P450 1A2 [5]): 100 nM
Compound: C#CCOc1ccc(-c2cc(=O)c3ccc4ccccc4c3o2)cc1 [ANF4’PE, α-naphthoflavone 4’-propargyl ether]

IC50 (human P450 1A1): 980 ± 210 nM
binding spectra with P450 1B1, in words (human P450 1B1 [10]): Reverse Type I binding spectra
IC50 (human P450 1A2 [9]): 130 ± 30 nM
spectral change / Type I binding spectra with P450 3A4, in words (human P450 3A4 [4]): Type I spectral change
ΔAmax, P450 3A4, from difference spectra (Soret band) (human P450 3A4 [4]; purified P450 3A4): 0.12 ± 0.02
spectral changes with P450 2C9, in words (human P450 2C9 [7]): did not induce spectral changes
IC50 (human P450 2C9 [2]): 14000 ± 1200 nM
Compound: O=c1cc(-c2ccccc2)oc2ccccc12 [flavone]
effect on formation of 1’-hydroxymidazolam by P450 3A4, in words (human P450 3A4 [8]): enhanced the formation of 1’-hydroxymidazolam
inhibition of P450 3A4 midazolam 4-hydroxylation, in words (human P450 3A4 [1]): inhibited the formation of 4-hydroxymidazolam
